Columns and labels:
[1] = Change of mouse weight in high fat diet mice; type: in vivo; details: vs HFD group
Protocol: (§1) The C57BL/6 mice (purchased from National Laboratory Animal Center, Taiwan) were bred in Laboratory Animal Center of China Medical University, Taiwan (conditions: 3 mice were bred per cage; the temperature of the breeding room ranged from 20° C. to 24° C., and the relative humidity ranged from 50% to 70%; the light cycle was 12 hours; sufficient water and normal diet were supplied daily) until they were 4 weeks old. Then, the mice were randomly divided into seven groups (six mice per group), and individually subjected to the following treatment and experimentation:
(§2) (3) Oral administration of butylidenephthalide (BP) group (i.e., “HFD+BP” group): the mice were continuously fed with a high fat diet, and then simultaneously administered with butylidenephthalide (BP) by oral route at the beginning of the ninth week (dosage amount: every day, 250 mg/kg-body weight) until they were 18 weeks old. […]
B2-1. In the preparation process of above Example A2, the weight change of mice was recorded every week until they were 18 weeks old.
To understand whether butylidenephthalide (BP) is effective in inhibiting weight gain or not, the average value of the recorded weights of mice in each group of Example B2-1 was obtained weekly.

C57BL/6 mice [2] = assay: Fat browning in subcutaneous and visceral adipose tissue slices of high fat diet mice (H&E stain); type: in vivo; details: 18 weeks old, BP oral 250 mg/kg-body weight daily from week 9, cells i.v. 4×10^5 every two weeks from week 11, vs HFD group
Protocol: as §1, §2
B2-3. […] The weight of the subcutaneous adipose tissue and visceral adipose tissue of mice were measured and recorded, and the collected organs were kept at a temperature of −80° C. for following experimentation and analysis. […]

adipose cells = assay: Oxygen consumption rate and spare respiratory capacity of adipose cells (XF24 extracellular flux analyser); type: cell-based; details: 7 days, vs differentiated adipose cells not treated by BP
Text: As described above, different from white adipose cells, the morphology of brown-like adipose cells/brown adipose cells is characterized by (i) containing numerous adipose droplets, (ii) containing a large number of mitochondria and (iii) having highly expressed uncoupling protein 1 (UCP1). […] Therefore, the number and proportion of brown-like adipose cells/brown adipose cells can be conceived by observing the number of adipose droplets in the cells, the oxygen consumption rate of adipose cells and the gene and protein expressions of UCP1.
After a medium was replaced with a fresh medium, the cells were continuously cultivated at 37° C. for 1 hour. Then, the mitochondrial biosynthesis of cells in each group was separately interfered with 25 μM oligomycin, 0.5 μM FCCP and 5 μM rotenone/antimycin A sequentially, and was continuously detected by a XF24 extracellular flux analyser (purchased from Seahorse Bioscience) prior to and during conduction of the aforementioned interference. The oxygen tension and acidification degree in the culture medium were detected by an adjusted probe to further calculate the oxygen consumption rate and spare respiratory capacity. The results of oxygen consumption rate are shown in FIG. 3A, and the results of basic oxygen consumption rate and spare respiratory capacity are shown in FIG. 3B.

UCP1 = UCP1 gene (RT-PCR) and UCP1 protein (Western blot) expression in adipose cells; type: cell-based; details: 7 days
Protocol: (§3) The adipose cells provided by Example B1-2 were divided into seven groups and independently subjected to the following treatments:
(1) Control group: cells were cultivated in a conditional medium provided by A1 for 7 days;
(§4) (3) BP-10 group: cells were cultivated in a conditional medium that was externally added with butylidenephthalide (BP) (to a final concentration of 10 μg/mL) for 7 days;
(5) Tofacitinib group: cells were cultivated in a conditional medium that was externally added with tofacitinib (to a final concentration of 2 μM) for 7 days (tofacitinib was purchased from UNI-ONWARD Corp. (Taiwan); product number: PZ0017);
(6) Adenosine group: cells were cultivated in a conditional medium that was externally added with adenosine (to a final concentration of 1 μM) for 7 days (adenosine was purchased from UNI-ONWARD Corp. (Taiwan); product number: A4036); and
(7) Proanthocyanidin group: cells were cultivated in a conditional medium that was externally added with proanthocyanidin (to a final concentration of 10 μM) for 7 days (adenosine was purchased from Hong Jing Co., Ltd. (Taiwan); product number: sc-344976).
The cells in each group provided by Example B1-3 were separately collected, and then the total RNA and protein of the cells were individually extracted for the following experimentation.
The total RNA was subjected to reverse transcription to provide cDNA, and then the expression of UCP1 gene of the cells in each group was analyzed by reverse transcription polymerase chain reaction (RT-PCR). The results are shown in FIG. 4A, wherein FABP4 gene was a biomarker of mature adipose cells, and thus, it was used as an internal control of adipose cells in this experimentation. The actin gene was used as an internal control of all the cells. Furthermore, the expression of UCP1 protein of the cells in each group was analyzed by Western blot. The results are shown in FIG. 4B, wherein FABP4 protein was used as an internal control of adipose cells. The actin was used as an internal control of all the cells.

C57BL/6 mice [3] = assay: Accumulation of white fat: organ appearance and weight of subcutaneous and visceral adipose tissue of high fat diet mice; type: in vivo
Protocol: as §1
(§5) (3) Oral administration of butylidenephthalide (BP) group (i.e., “HFD+BP” group): the mice were continuously fed with a high fat diet, and then simultaneously administered with butylidenephthalide (BP) by oral route at the beginning of the ninth week (dosage amount: every day, 250 mg/kg-body weight) until they were 18 weeks old.
(§6) (4) Cell infusion of adipose stem cells group (i.e., “HFD+ADSC” group): the mice were continuously fed with a high fat diet, and then simultaneously administered with adipose stem cells by intravenous injection at the beginning of the eleventh week (dosage amount: every two weeks, 4×10^5 cells suspended in 100˜150 μL of normal saline) until they were 18 weeks old (four injections in total).
(5) Oral administration of butylidenephthalide (BP) in combination with cell infusion of adipose stem cells group (i.e., “HFD+BP+ADSC” group): the mice were continuously fed with a high fat diet, then simultaneously administered with butylidenephthalide (BP) by oral route at the beginning of the ninth week (dosage amount: every day, 250 mg/kg-body weight), and further simultaneously administered with adipose stem cells by intravenous injection at the beginning of the eleventh week (dosage amount: every two weeks, 4×10^5 cells suspended in 100˜150 μL of normal saline) until they were 18 weeks old (four injections in total). […]
B2-3. […] The weight of the subcutaneous adipose tissue and visceral adipose tissue of mice were measured and recorded, and the collected organs were kept at a temperature of −80° C. for following experimentation and analysis.
To understand whether butylidenephthalide (BP) can alleviate the accumulation of white fat or not, the photos of appearances of the liver, heart, kidney, subcutaneous adipose tissue and visceral adipose tissue of mice in each group recorded in Example B2-3 are shown in FIG. 6A. The weight of subcutaneous adipose tissue and visceral adipose tissue of mice in each group recorded in Example B2-3 were respectively averaged.

C57BL/6 mice [4] = assay: Contents of glucose, triglycerides and total cholesterol in blood of high fat diet mice; type: in vivo
Protocol: as §1, §5, §6
(5) Oral administration of butylidenephthalide (BP) in combination with cell infusion of adipose stem cells group (i.e., “HFD+BP+ADSC” group): the mice were continuously fed with a high fat diet, then simultaneously administered with butylidenephthalide (BP) by oral route at the beginning of the ninth week (dosage amount: every day, 250 mg/kg-body weight), and further simultaneously administered with adipose stem cells by intravenous injection at the beginning of the eleventh week (dosage amount: every two weeks, 4×10^5 cells suspended in 100˜150 μL of normal saline) until they were 18 weeks old (four injections in total).
(6) Cell infusion of brown-like adipose cells group (i.e., “HFD+BLC” group): the mice were fed with a high fat diet, and then simultaneously administered with brown-like adipose cells provided by Example 1 by intravenous injection at the beginning of the eleventh week (dosage amount: every two weeks, 4×10^5 cells suspended in 100˜150 μL of normal saline) until they were 18 weeks old (four injections in total).
(7) Oral administration of butylidenephthalide (BP) in combination with cell infusion of brown-like adipose cells group (i.e., “HFD+BP+BLC” group): the mice were continuously fed with a high fat diet, then simultaneously administered with butylidenephthalide (BP) by oral route (dosage amount: every day, 250 mg/kg-body weight) at the beginning of the ninth week, and further simultaneously administered with brown-like adipose cells provided by Example 1 by intravenous injection at the beginning of the eleventh week (dosage amount: every two weeks, 4×10^5 cells suspended in 100˜150 μL of normal saline) until they were 18 weeks old (four injections in total).
B2-2. After Example B2-1 was accomplished, the mice was subjected to fast for 12 hours, and then the blood of mice was collected in a serum tube by cardic blood collection. The collected blood was stand for 30 minutes, and then subjected to centrifuge at 3000 rpm, 4° C. for 10 minutes. The supernatant thus provided was collected (i.e., blood sample) and kept at a temperature of 4° C. for following experimentation and analysis.
To understand whether butylidenephthalide (BP) is effective in reducing the contents of glucose, triglycerides and total cholesterol in blood or not, the blood sample of mice in each group provided by Example B2-2 was detected by a SYSMEX K-1000 and TOSHIBA TBA200FA automatic blood analyzer to analyze the contents of glucose, triglycerides and total cholesterol in blood of mice. The results of each group were averaged. Based on the result of “HFD” group, the relative contents of glucose, triglycerides and total cholesterol of each group were calculated.

adipose stem cells = assay: Production of adipose droplets in adipose cells differentiated from adipose stem cells (microscope morphology, oil red stain); type: cell-based; details: 7 days
Protocol: A DMEM medium (brand name: GIBCO; product number: 11965092) was used as a basic medium, and rosiglitazone (concentration: 0.5 μM, solvent: dimethyl sulfoxide (DMSO)), insulin (concentration: 170 nM, solvent: culture medium), 3-isobutyl-1-methylxanthine (IBMX; concentration: 0.5 μM, solvent: DMSO) and dexamethasone (concentration: 1 μM, solvent: DMSO) were externally added therein to provide a conditional medium.
The adipose stem cells (ADSCs) were cultivated in a DMEM/F12 medium at 37° C., 5% CO2 for 5 days. […] The results are shown in FIG. 1 (i.e., adipose stem cells (undifferentiated)).
The aforementioned pre-cultivated adipose stem cells provided by Example B1-1 were cultivated in a conditional medium provided by Example A1 at 37° C., 5% CO2 for 7 days to differentiate into adipose cells. […] The results are also shown in FIG. 1 (i.e., adipose cells (differentiated)).
as §3
(2) BP-2 group: cells were cultivated in a conditional medium that was externally added with butylidenephthalide (BP) (to a final concentration of 2 μg/mL) for 7 days (butylidenephthalide (BP) was purchased from ECHO CHEMICAL Co., Ltd. (Taiwan); product number: A10353);
as §4
(4) BP-50 group: cells were cultivated in a conditional medium that was externally added with butylidenephthalide (BP) (to a final concentration of 50 μg/mL) for 7 days;
First, the cell morphology of each group in photos taken in Examples B1-1, B1-2 and B1-3 was observed.
Thereafter, the adipose droplets of adipose stem cells (undifferentiated) provided by Example B1-1, adipose cells (differentiated) provided by Example B1-2 and adipose cells in “BP-2 group”, “BP-10 group” and “BP-50 group” provided by Example B1-3 were stained by oil red dye, and the morphology thereof was taken photos and recorded. Then, the number of adipose droplets of adipose cells in each group was quantified.

[5] = 18 weeks old, BP oral 250 mg/kg-body weight daily from week 9, cells i.v. 4×10^5 every two weeks from week 11
[6] = based on the result of HFD group (100)
[7] = high fat diet mice, 18 weeks old, fasted 12 hours, BP oral 250 mg/kg-body weight daily, cells i.v. 4×10^5 every two weeks
[8] = high fat diet mice, vs HFD group

## CCCC=C1OC(=O)c2ccccc21 [BP, butylidenephthalide]
[1]
  weights of mice (weight gain, 9 to 18 weeks old, FIG. 7): increased significantly less
C57BL/6 mice [2]
  cell morphology of subcutaneous and visceral adipose tissue (FIGS. 5A, 5B): contained the brown adipose cells with numerous small adipose droplets
Adipose cells; BP 2 μg/mL
  oxygen consumption rate (FIG. 3A): higher oxygen consumption rate
  spare respiratory capacity (FIG. 3B): higher
Adipose cells; BP 10 μg/mL
  oxygen consumption rate (FIG. 3A): higher oxygen consumption rate
  spare respiratory capacity (FIG. 3B): higher
Adipose cells; BP 50 μg/mL
  oxygen consumption rate (FIG. 3A): higher oxygen consumption rate
  spare respiratory capacity (FIG. 3B): higher
UCP1; BP 10 μg/mL vs tofacitinib 2 μM, adenosine 1 μM, proanthocyanidin 10 μM
  increments of UCP1 gene and UCP1 protein compared with known drugs: higher than that of tofacitinib group, adenosine group and proanthocyanidin group
UCP1; BP 10 μg/mL, vs control group
  expression of UCP1 gene (RT-PCR, FIG. 4A): significantly increased
  expression of UCP1 protein (Western blot, FIG. 4B): significantly increased
C57BL/6 mice [3]; [5]
  Subcutaneous adipose tissue (weight, average): 0.24 g
  Visceral adipose tissue (weight, average): 0.57 g
C57BL/6 mice [3]; vs HFD group
  accumulation condition of white fat in visceral (appearance, FIG. 6A): significantly alleviated
  weights of subcutaneous fat and visceral fat, in words: significantly lower
C57BL/6 mice [4]; [6]
  Relative content of glucose: 85
  Relative content of total cholesterol: 80
  Relative content of triglycerides: 84
C57BL/6 mice [4]; [7]
  Glucose (serum): 411.50 ± 43.50 mg/dL
  Total cholesterol (serum): 157.50 ± 1.50 mg/dL
  Triglycerides (serum): 213.50 ± 50.50 mg/dL
C57BL/6 mice [4]; [8]
  content of glucose in blood, in words: significantly lower
  content of total cholesterol in blood (FIG. 8C; printed as triglycerides), in words: significantly lower
  content of triglycerides in blood, in words: significantly lower
Adipose stem cells; BP 2 μg/mL, vs adipose cells not treated by BP
  content of adipose droplets (oil red stain, FIGS. 2A, 2B): contained more adipose droplets
Adipose stem cells; BP 10 μg/mL in conditional medium, vs undifferentiated adipose stem cells and differentiated adipose cells
  adipose droplets in cells (microscope morphology, FIG. 1): contained more adipose droplets
Adipose stem cells; BP 10 μg/mL, vs adipose cells not treated by BP and other BP groups
  content of adipose droplets (oil red stain, FIGS. 2A, 2B): highest content of adipose droplets
Adipose stem cells; BP 50 μg/mL, vs adipose cells not treated by BP
  content of adipose droplets (oil red stain, FIGS. 2A, 2B): contained more adipose droplets

— US11920157B2, “Applications of butylidenephthalide” (NATIONAL DONG HWA UNIVERSITY, priority 2016, dated 2024)
